# Reference: US9359338B2, “Cyclopropanecarboxamido-substitute aromatic compounds as anti-tumor agents” (Crown Bioscience Inc. (Taiwan), priority 2012, dated 2016)
# pIC50: −log10 of the molar value.
# Target: B-Raf kinase (Homo sapiens (Human), UniProt P15056)
# Experiment: Inhibitory activity at B-Raf kinase (ADP-GLO assay)
# Type: biochemical
# Settings: not given
# Method: Inhibitory Activity of Compounds at B-Raf Kinase
# • [Experimental method]: Use ADP-GLO™ assay kit from Promega to evaluate the inhibitory activity of compounds at B-Raf • [Instrument]: PerKinElmer's ENVISION plate reader • [Material]: Optiplate-384 well plate (PerKinElmer), kinase buffer (50 mM Hepes pH7.5, 1 mM EGTA, 2 mM DTT, 10 mM Mg^2+, 0.05% BSA), B-Raf kinase (Millipore, catalogue #14-530-K), GST-MEK1 substrate (Carna, catalogue #07-141-10), Super pure ATP (Promega), ADP-GLO™ assay kit (Promega, catalogue # V9102), DMSO (Sigma, catalogue #34869), purified water (Millipore, type: Milli-Q). • [Study conditions]: Mix B-Raf kinase (final concentration: 5 nM) and compound (DMSO final concentration: 0.25%) and preincubate at 30° C. for 20 min, then add ATP (final concentration: 6 μM) and reaction substrate (final concentration: 30 nM), React for 2 hrs at 30° C. After reaction, add ADP-GLO™ reagent, react for 40 min at room temperature, then add ADP-GLO™ detecting agent, react for 30 min at room temperature. After that, use ENVSION to measure the […]. • [Samples]: Compounds in the examples and Sorafenib (positive control) • [Data analysis]: Use CBIS data analysis software to calculate IC50 values
# Sequence of B-Raf kinase (P15056 416-766): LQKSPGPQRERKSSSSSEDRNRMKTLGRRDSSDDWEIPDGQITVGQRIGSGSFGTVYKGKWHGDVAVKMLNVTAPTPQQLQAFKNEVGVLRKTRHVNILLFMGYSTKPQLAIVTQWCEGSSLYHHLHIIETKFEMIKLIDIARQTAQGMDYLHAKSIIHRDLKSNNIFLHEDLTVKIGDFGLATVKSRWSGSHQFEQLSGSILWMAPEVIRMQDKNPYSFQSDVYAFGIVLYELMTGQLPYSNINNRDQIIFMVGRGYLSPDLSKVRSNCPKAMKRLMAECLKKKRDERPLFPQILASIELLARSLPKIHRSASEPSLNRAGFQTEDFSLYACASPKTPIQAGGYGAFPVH
row,SMILES,pIC50
1,O=C(Nc1ccc(Oc2ccnc(NC(=O)C3CC3)c2)cc1)Nc1cc(F)cc(C(F)(F)F)c1 [Exe. 141],6.90
2,O=C(Nc1ccc(Oc2ccnc(NC(=O)C3CC3)c2)cc1)Nc1cc(C(F)(F)F)ccc1Cl [Exe. 142],7.41
3,O=C(Nc1ccc(Oc2ccnc(NC(=O)C3CC3)c2)cc1)Nc1cccc(C(F)(F)F)c1 [Exe. 144],7.52
4,CC(F)(F)c1ccc(F)c(NC(=O)Nc2ccc(Oc3ccnc(NC(=O)C4CC4)c3)cc2)c1 [Exe. 148],7.80

# These reach a higher pIC50. Values come first.
row,pIC50,SMILES
1,7.82,CC(F)(F)c1ccnc(NC(=O)Nc2ccc(Oc3ccnc(NC(=O)C4CC4)c3)cc2)c1 [Exe. 147]
2,7.85,O=C(Nc1ccc(Oc2ccnc(NC(=O)C3CC3)c2)cc1)Nc1cccc(OC(F)(F)F)c1 [Exe. 146]
3,8.26,CN1CCC(c2cc(NC(=O)Nc3ccc(Oc4ccnc(NC(=O)C5CC5)c4)cc3)cc(C(F)(F)F)c2)CC1 [Exe. 143]
4,8.29,CS(=O)(=O)c1cc(NC(=O)Nc2ccc(Oc3ccnc(NC(=O)C4CC4)c3)cc2)cc(C(F)(F)F)c1 [Exe. 145]

# Target: KDR kinase (790-1356 AA) (Homo sapiens (Human), UniProt P35968)
# Experiment: Inhibitory activity at KDR kinase (Lance Ultra Ulight-TK assay)
# Type: biochemical
# Settings: not given
# Procedure, shortened: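 TR-FRET (Eu-anti-phosphotyrosine PT66) with 20 nM KDR preincubated with compound 20 min at 30 °C in HEPES pH 7.5 buffer with Mg2+/Mn2+, 0.5% DMSO.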
# Sequence of KDR kinase (790-1356 AA) (P35968 790-1356): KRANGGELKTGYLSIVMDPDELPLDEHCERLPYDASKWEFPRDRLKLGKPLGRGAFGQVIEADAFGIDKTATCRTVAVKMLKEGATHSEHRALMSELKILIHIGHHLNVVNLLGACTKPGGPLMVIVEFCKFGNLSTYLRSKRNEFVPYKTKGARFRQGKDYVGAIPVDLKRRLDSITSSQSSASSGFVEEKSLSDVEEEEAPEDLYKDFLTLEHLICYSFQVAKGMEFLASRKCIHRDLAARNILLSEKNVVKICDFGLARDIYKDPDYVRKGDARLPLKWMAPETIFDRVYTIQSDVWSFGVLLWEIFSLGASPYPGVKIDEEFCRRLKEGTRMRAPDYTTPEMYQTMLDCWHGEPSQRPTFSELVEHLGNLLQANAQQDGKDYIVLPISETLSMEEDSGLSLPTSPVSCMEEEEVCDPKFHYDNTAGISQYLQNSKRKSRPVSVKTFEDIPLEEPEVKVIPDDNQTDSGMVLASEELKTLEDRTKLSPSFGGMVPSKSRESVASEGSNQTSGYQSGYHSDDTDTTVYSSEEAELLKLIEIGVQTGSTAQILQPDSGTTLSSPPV
row,SMILES,pIC50
1,O=C(Nc1ccc(Oc2ccnc(NC(=O)C3CC3)c2)cc1)Nc1cc(F)cc(C(F)(F)F)c1 [Exe. 141],8.15
2,O=C(Nc1ccc(Oc2ccnc(NC(=O)C3CC3)c2)cc1)Nc1cc(C(F)(F)F)ccc1Cl [Exe. 142],7.98
3,O=C(Nc1ccc(Oc2ccnc(NC(=O)C3CC3)c2)cc1)Nc1cccc(C(F)(F)F)c1 [Exe. 144],7.94
4,CC(F)(F)c1ccc(F)c(NC(=O)Nc2ccc(Oc3ccnc(NC(=O)C4CC4)c3)cc2)c1 [Exe. 148],8.21

# Next, values leading:
row,pIC50,SMILES
1,7.95,CC(F)(F)c1ccnc(NC(=O)Nc2ccc(Oc3ccnc(NC(=O)C4CC4)c3)cc2)c1 [Exe. 147]
2,8.11,O=C(Nc1ccc(Oc2ccnc(NC(=O)C3CC3)c2)cc1)Nc1cccc(OC(F)(F)F)c1 [Exe. 146]
3,8.02,CN1CCC(c2cc(NC(=O)Nc3ccc(Oc4ccnc(NC(=O)C5CC5)c4)cc3)cc(C(F)(F)F)c2)CC1 [Exe. 143]
4,8.12,CS(=O)(=O)c1cc(NC(=O)Nc2ccc(Oc3ccnc(NC(=O)C4CC4)c3)cc2)cc(C(F)(F)F)c1 [Exe. 145]

# System: PLC-PRF-5 cells
# Experiment: Inhibition of proliferation of PLC-PRF-5 cells (ATPlite)
# Type: cell-based
# Settings: Homo sapiens, PLC-PRF-5, PLC-PRF-5 cells; read-out: PLC-PRF-5 cell proliferation IC50
# Procedure, shortened: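 PLC-PRF-5 cells in DMEM/10% FBS, seeded 2 h before compound; 8-point 3-fold dilutions from 30 μM final top, 0.3% DMSO. After 96 h at 37 °C, 5% CO2, ATP content read by ATPlite luminescence; IC50 calculated.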
row,SMILES,pIC50
1,O=C(Nc1ccc(Oc2ccnc(NC(=O)C3CC3)c2)cc1)Nc1cc(F)cc(C(F)(F)F)c1 [Exe. 141],6.19
2,O=C(Nc1ccc(Oc2ccnc(NC(=O)C3CC3)c2)cc1)Nc1cc(C(F)(F)F)ccc1Cl [Exe. 142],6.19
3,CN1CCC(c2cc(NC(=O)Nc3ccc(Oc4ccnc(NC(=O)C5CC5)c4)cc3)cc(C(F)(F)F)c2)CC1 [Exe. 143],6.05
4,O=C(Nc1ccc(Oc2ccnc(NC(=O)C3CC3)c2)cc1)Nc1cccc(C(F)(F)F)c1 [Exe. 144],6.39
5,CS(=O)(=O)c1cc(NC(=O)Nc2ccc(Oc3ccnc(NC(=O)C4CC4)c3)cc2)cc(C(F)(F)F)c1 [Exe. 145],5.78
6,O=C(Nc1ccc(Oc2ccnc(NC(=O)C3CC3)c2)cc1)Nc1cccc(OC(F)(F)F)c1 [Exe. 146],6.16
7,CC(F)(F)c1ccnc(NC(=O)Nc2ccc(Oc3ccnc(NC(=O)C4CC4)c3)cc2)c1 [Exe. 147],5.94
8,CC(F)(F)c1ccc(F)c(NC(=O)Nc2ccc(Oc3ccnc(NC(=O)C4CC4)c3)cc2)c1 [Exe. 148],6.62

# System: pERK in MDA-MB-231 cells
# Experiment: Inhibitory activity at pERK (In Cell Western, MDA-MB-231 cells)
# Type: cell-based
# Settings: Homo sapiens, MDA-MB-231, MDA-MB-231 cells; read-out: MDA-MB-231 pERK IC50
# Procedure, shortened: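 MDA-MB-231 cells were treated 2 h at 37 °C with 8 compound concentrations in 3-fold dilutions from 30 μM top (0.3% DMSO, DMEM with 0.1% BSA). Cells were then fixed, methanol-permeabilized and immunostained for pERK with PI counterstain. Fluorescence was read on Acumen and IC50 calculated.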
row,SMILES,pIC50
1,O=C(Nc1ccc(Oc2ccnc(NC(=O)C3CC3)c2)cc1)Nc1cc(F)cc(C(F)(F)F)c1 [Exe. 141],7.39
2,O=C(Nc1ccc(Oc2ccnc(NC(=O)C3CC3)c2)cc1)Nc1cc(C(F)(F)F)ccc1Cl [Exe. 142],7.86
3,O=C(Nc1ccc(Oc2ccnc(NC(=O)C3CC3)c2)cc1)Nc1cccc(C(F)(F)F)c1 [Exe. 144],8.22
4,CC(F)(F)c1ccc(F)c(NC(=O)Nc2ccc(Oc3ccnc(NC(=O)C4CC4)c3)cc2)c1 [Exe. 148],8.11

# The remaining lines, values ahead:
row,pIC50,SMILES
1,7.62,CC(F)(F)c1ccnc(NC(=O)Nc2ccc(Oc3ccnc(NC(=O)C4CC4)c3)cc2)c1 [Exe. 147]
2,7.94,O=C(Nc1ccc(Oc2ccnc(NC(=O)C3CC3)c2)cc1)Nc1cccc(OC(F)(F)F)c1 [Exe. 146]
3,7.87,CN1CCC(c2cc(NC(=O)Nc3ccc(Oc4ccnc(NC(=O)C5CC5)c4)cc3)cc(C(F)(F)F)c2)CC1 [Exe. 143]
4,7.68,CS(=O)(=O)c1cc(NC(=O)Nc2ccc(Oc3ccnc(NC(=O)C4CC4)c3)cc2)cc(C(F)(F)F)c1 [Exe. 145]
